These results are taken from patent publication US12503448B2, “Antibacterial and antiparasitic quinoxaline-2,3-diamine derivatives” (University College Cardiff Consultants Limited, priority 2019, dated 2025).

Structures are written as SMILES. Converted amounts (≈) assume the structure as drawn. Like-named read-outs stand apart in the source and are kept apart here.

The subject of data set [1] is S. mansoni schistosomula. Briefly: 72 hours schistosomula drug screen. It counts as cell-based, Schistosoma mansoni. The conditions noted are these: for Selectivity Index Schistosomula: HepG2 CC50 over schistosomula EC50; for EC50: Schistosoma mansoni. On the procedure:
Biological Screening 72 Hours Schistosomula Drug Screen […] G. Colley, […], Schistosoma mansoni: simplified method for the production of schistosomules., Exp. Parasitol. 35 (1974) 44-51. Newly transformed schistosomula were prepared for 72 hour high throughput screening (HTS) in 384-well black-sided microtiter plates (Perkin Elmer, MA, USA) as described in M. Nur-e-alam, M. Yousaf, […]. Bari, H. A. Ghabbour, […]. Ho, A. J. […], Neoclerodane Diterpenoids from […], Teucrium […]. Nat. […] The data obtained in this manner is shown in Table 1 in the columns labelled “Phenotype”, “Motility” and “Schistosomula average”.

Data set [2] has as its system S. mansoni adult worms. Briefly: Adult worm drug screen (WHO scoring, WormassayGP2). It counts as cell-based, Schistosoma mansoni. The conditions noted are these: for Selectivity Index Adult: HepG2 CC50 over adult worm EC50; for EC50: Schistosoma mansoni, adult worms. An excerpt:
Mice (MF-1 mice, Harlan, UK), infected 7 weeks previously with 180 cercaria, were euthanised with an intraperitoneal injection of phenobarbital/heparin solution. Adult worms were recovered by perfusion of the portal system and subjected to drug screening as previously described in Padalino G, Ferla S, Brancale A, Chalmers I W, Hoffmann K F. Int J Parasitol Drugs Drug Resist. 2018 December; 8(3):559-570; in Whiteland H L, Chakroborty A, Forde-Thomas J E, Crusco A, Cookson A, Hollinshead J, Fenn C A, Bartholomew B, Holdsworth P A, Fisher M, Nash R J, Hoffmann K F. Int J Parasitol Drugs Drug Resist. 2018 December; 8(3):465-474; and in Crusco A, Bordoni C, Chakroborty A, Whatley K C L, Whiteland H, Westwell A D, Hoffmann K F. Eur J Med Chem. 2018 May 25; 152:87-100. The data obtained in this manner is shown in Table 1 in the columns labelled “Adult worm”.
Regarding the quantification of drug treatment on adult worms (e.g. decreased activity, paralysis or sluggishness), two different approaches were used, as described below. Where egg deposition was noticed, eggs were removed and counted using a Sedgewick rafter slide.
Adult worms were scored using the standardized microscopic WHO-TDR scoring system previously described by Ramirez, B., Bickle, Q., Yousif, F., Fakorede, F., Mouries, M.-A., Nwaka, S. in Schistosomes: Challenges in compound screening, Expert Opin Drug Discov. 2007 October; 2(s1): S53-61. This scoring system (0-4) identifies changes in worm movement and is defined according to the following scoring matrix: 0=no movement, 1=no movement with visible gut peristalsis, 2=minimal movement (occasional movement from anterior or posterior end of the worm), 3=slow continuous movement and 4=normal movement.
A digital image processing-based system was also used to assess parasite motility after drug treatment and is a modification of methods previously described by Marcellino C., Gut, J., Lim, K., Singh R., McKerrow, L. and Sakanari, J. WormAssay: a novel computer application for whole-plate motion-based screening of macroscopic parasites. PLoS Negl Trop Dis. 2012 January:6(1):e1494. This allowed for objective verification of the WHO method described above. The data obtained with this quantification method is shown in Table 1 in the columns labelled “Adult worm”.

Data set [3] concerns F. hepatica newly excysted juveniles (NEJs). Kind of data set: Newly excysted juveniles (NEJs) drug screen. It counts as cell-based, Fasciola hepatica. The arrangement: scale not given here. The conditions noted are these: 10 μM, 72 h; higher score indicates lower worm activity. The protocol: Newly Excysted Juveniles (NEJs) Drug Screen
F. hepatica (Italian strain) metacercariae were obtained from Ridgeway Research, Gloucestershire, UK and stored at 4° C. Newly excysted juveniles (NEJs) from metacercariae were produced based on an optimisation introduced to the excystment method published by Dixon et al. and Wilson et al (Dixon, K. E., The physiology of excystment of the metacercaria of Fasciola hepática L. Parasitology, 1966, 56, 431-456.; Wilson, L. R., Good, R. T., Panaccio, M., Wijffels, G. L., Sandeman, R. M., Spithill, T. W, Fasciola hepatica: Characterization and Cloning of the Major Cathepsin B Protease Secreted by Newly Excysted Juvenile Liver Fluke. Experimental Parasitology 1998, 88, 85-94).
After excystment, NEJs were distributed into a 24 well tissue culture plate at a density of 25 parasites per well containing 1 mL of pre-warmed NEJs culture media. Compounds were added to respective wells and NEJ/compound co-cultures were incubated at 37° C. in an atmosphere containing 5% CO2 for 72 hours at a final concentration of 10 μM.
F. hepatica NEJs (25 per well) were incubated with the three compounds at a concentration of 10 μM (in 0.1% DMSO) and cultured for 72 hrs at 37° C. in an atmosphere containing 5% CO2. Control wells (25 NEJs per well) included those containing 0.1% DMSO (solvent) and RMPI (media) as negative controls or 10 μM Triclabendazole (0.1% DMSO, as positive control, labelled “Tbz” (Comp. 3). After 72 hrs, all NEJs were scored for phenotype and motility metrics. For each treatment, an average of both phenotype and motility score was calculated based on the individual parasite scores (across two independent replicates), wherein a higher score indicates lower worm activity. SD is reported on the bar chart.

Data set [4] has as its system E. coli ATCC 25922. Kind of data set: In vitro antibacterial activity. The data set is classed as cell-based. The following applies: Escherichia coli, ATCC25922.
In data set [5] the test system is S. aureus ATCC 29213. Kind of data set: In vitro antibacterial activity. The data set is classed as cell-based. The conditions noted are these: Staphylococcus aureus, ATCC29213.
Data set [6] deals with M. smegmatis mc^2 15 ATCC 700084. Briefly: In vitro antibacterial activity. It counts as cell-based, Mycobacterium smegmatis. The conditions noted are these: Mycolicibacterium smegmatis, ATCC700084.
Data set [7] deals with Pseudomonas aeruginosa ATCC 27853. Kind of data set: In vitro antibacterial activity. The data set is classed as cell-based. The following applies: Pseudomonas aeruginosa, ATCC27853.
Data set [8] concerns S. epidermidis NTCT11077. Briefly: In vitro antibacterial activity. It counts as cell-based. The following applies: Staphylococcus epidermidis, NTCT11077.
Data set [9] concerns B. cereus. Briefly: In vitro antibacterial activity. The conditions noted are these: Bacillus cereus. The data set is classed as cell-based.
Data set [10] can be described thus: Mouse pharmacokinetics, oral cassette dosing. The conditions noted are these: male, C57/BL6, mouse, plasma, po, 2.5 mg/kg. The protocol: Non-compartmental mouse pharmacokinetics (Male C57/BL6 Mouse, Fasted; 3 mice per group) were determined after oral administration of a nominal dose of 2.5 mg/kg of these formulations in cassettes (5 compounds/group) according to the protocols employed by WuXi (https://www.wuxiapptec.com; the CRO that conducted these studies).

The nature of data set [11]: Semi thermodynamic solubility. The following applies: thermodynamic from solid.
Data set [12] can be described thus: Metabolic stability in mouse liver microsomes. The following applies: liver microsomes.
Data set [13] can be described thus: MTT assay on HepG2 cells. The data set is classed as cell-based. The following applies: human. The protocol: MTT Assay on HepG2 Cells Human Hepatocyte Carcinoma (HepG2) cells (85011430, Sigma Aldrich) were used to assess the overt toxicity of these anti-infective compounds. […] A negative control (1% v/v Triton X-100; X100, Sigma-Aldrich) was also included in each screen. After addition of compounds, each plate was then incubated for a further 20 hrs before application of MTT reagent (prepared as described in Nur-[…], Bari A, Ghabbour […], Hoffmann […] Nat Prod. 2017 Jun. 23; 80(6):1900-1908 for the assessment of compound cytotoxicity using the MTT assay. […] The plate was then further incubated for 4 hrs. After incubation, each plate was blotted dry under the laminar flow to remove the MTT treated culture media. A 100 μl DMSO: isopropanol (1:1) solution was then added to each well and the plate was then subsequently incubated for 10 minutes at 37° C. Following incubation, each plate was shaken again and then absorbance measured at 570 nm. The absorbance reading was corrected based on the average value of the wells used as blank (no cells). […] The data obtained in this manner is shown in Table 1 in the columns labelled “HepG2”. […] The selectivity indexes for schistosomula and adult worms are shown in the final two columns in Table 1.

The mark [14] stands for this setting: schistosomula, 72 hour culture, read-out: EC50 Motility.
Where [15] appears, read: schistosomula, 72 hour culture, read-out: EC50 Phenotype.

Take `CCCCCC(=O)Nc1ccc2nc(Nc3ccc(Cl)c(Cl)c3)c(Nc3ccc(Cl)c(Cl)c3)nc2c1` [Compound 18, N-(2,3-bis((3,4-dichlorophenyl)amino)quinoxalin-6-yl)hexanamide]: the “Selectivity Index Schistosomula” value in data set [1] worked out at 46. The values for the EC50 in data set [1] (setting [14]), in data set [1] (setting [15]) and in data set [2] were 1800 nM, 1020 nM and 320 nM, respectively. The “Selectivity Index Adult” value in data set [2] is 203. Also, the “Motility (M) Mean score” value in [3] is given as 4.05. Also, the “Phenotype (P) Mean score” value in data set [3] is 4.09. The MIC90 in [4] was > 125 µg/mL; in data set [5] it was 62.5 µg/mL (≈ 111 µM); in [6], > 125 µg/mL; in data set [7], > 125 µg/mL; in data set [8] it was > 125 µg/mL; in data set [9] it was 125 µg/mL (≈ 222 µM). The molecule further gave an AUC(0-t) in data set [10] of 68.2 ng·h/mL. Further, the highest concentration (Cmax) in [10] is 16.4 ng/mL. In data set [10], this molecule had an MRT last of 3.86 h. For the same molecule, the Tmax in data set [10] was 4 h. For the same molecule, the solubility (thermodynamic) in [11] worked out at 15.5 µM (≈ 8.73 µg/mL). Besides, the half-life at 1 μM in [12] is 0.618 h. Besides, in data set [12], the microsomal CLint at 1 μM was determined as 37.4 µL/min/mg.

For `c1ccc(/N=c2\sc3ccccc3s\c2=N/c2ccccc2)cc1` [Compound 20], in data set [1], the “Selectivity Index Schistosomula” value was determined as 3. The EC50 in data set [1] (average of phenotype and motility, read-out: EC50 Schistosomula average) came to 4410 nM; in data set [1] (setting [14]), 4510 nM; in [1] (setting [15]), 4310 nM. The same molecule yielded a CC50 at 24 h in [13] of 13800 nM.

Take `Cc1cccc(Nc2nc3ccc([N+](=O)[O-])cc3nc2Nc2cccc(C)c2)c1` [Compound 21]: the “Selectivity Index Schistosomula” value in [1] stood at 11. Besides, the EC50 in data set [1] (setting [14]) came to 1230 nM; in data set [1] (setting [15]) it was 1620 nM. In data set [13], this molecule returned a CC50 at 24 h of 15600 nM.

In the case of `O=[N+]([O-])c1ccc2nc(Nc3ccc(F)cc3)c(Nc3ccc(F)cc3)nc2c1` [Compound 6, N^2, N^3-bis(4-fluorophenyl)-6-nitroquinoxaline-2,3-diamine], the “Selectivity Index Schistosomula” value in data set [1] was found to be 12. Also, the concentration for a half-maximal effect (EC50) in data set [1] (setting [14]) is 1400 nM; in [1] (setting [15]) it was 2140 nM; in [2] it was 180 nM. Further, the “Selectivity Index Adult” value in data set [2] was 121. The molecule also displayed a CC50 at 24 h in [13] of 22000 nM.
